From publication PMC3973950, “Synthesis of 5-arylidine amino-1,3,4-thiadiazol-2-[(N-substituted benzyol)]sulphonamides endowed with potent antioxidants and anticancer activity induces growth inhibition in HEK293, BT474 and NCI-H226 cells” (Medicinal Chemistry Research, 2013)

What was measured:
Assay type in all cases: cell-based
[1] = test system: root meristem cells of Allium cepa; assay: In vitro antimitotic activity and cytogenetic analysis, Allium cepa meristem root model; settings: compounds 1 mg/mL, PC (EMS) 2 × 10^−2 M
Protocol: Small bulbs (1.5–2.0 cm in diameter) of the common onion, A. cepa (2n = 16), were purchased from vendor at a local market. Prior to initiating the test, the outer scales of the bulbs and the dry bottom plate were removed without destroying the root primordia. The roots of A. cepa were grown in distilled water in Erlenmeyer flasks (200 mL capacity) under laboratory conditions (dark 24 °C). For each synthesized compound sample, after reaching a length of 3 cm (±0.5 cm), a series of six bulbs were placed in distilled water (pH 7.3) for 48 h and then onion roots were treated with the synthesized compound at 1 mg/mL concentrations of each tested compound. The test tubes were kept in an incubator at 22 ± 1 °C, and the test samples were changed daily at the same time. Several of the newly formed root tips were then cut from each bulb and examined for any visible morphological abnormalities. The bulbs with satisfactory root lengths (2–2.5 cm) were used in the study, while those with exceptionally long or short roots were discarded (on average 2–3 bulbs). Therefore, individual sets of five bulbs were used for each extract sample.
Distilled water (pH 7.3) was used as a negative control, and EMS (2 × 10^−2 M) used as a positive control mutagen (Fiskesjo, [1993], [1997]). After 24 h of exposure, several root tips were removed from the bulbs, fixed in 3:1 (v/v) ethanol (90 %)/glacial acetic acid (45 %) and stored overnight at 4 °C. The next day, they were placed in 70 % (v/v) aqueous alcohol and refrigerated until used. Allium roots were softened by digesting with HCl and rinsed the roots in water. After removing the water from the third rinse, the roots were covered with the orcein acetate stain. The roots were incubated in the stain for 12 min. During this time, the very tip of the root begins to turn red as the DNA stains the numerous small actively dividing cells at the tip. A root was transferred to the centre of a clean microscope slide, and a drop of water was added. Using a razor blade most of the unstained part of the root was cut off and discarded. The root tip was covered with a cover slip and then carefully pushed down on the cover slide with the wooden end of a dissecting probe. […] The root tip should spread out to a diameter about 0.5–1 cm. Five slides were prepared per bulb.
The following parameters were used for the determination of cytotoxicity and genotoxicity: • (i) the mitotic index (MI) was calculated as the ratio between the number of mitotic cells and the total number of cells scored and expressed as percentage using following formula as per standard procedures. Mitoticindex=Numberofdividingcells/Totalnumberofcells×100 • (ii) Chromatin aberrations (stickiness, breaks and polar deviation) were used as end points for the determination of cytogenetic effects, and micronuclei (MNC) were scored in interphase cells per 1,000 cells (‰ MNC) (Freshney, [2000]). • (iii) The most frequent abnormalities are shown in microphotographs. After 72 h of exposure to the test samples, the root lengths were measured and used as an index of general toxicity. The results for mitotic index and root length are expressed as percentage of the negative and positive controls. Visible morphological modifications, such as changes in root consistency and colour as well as the presence of swelling (c-tumours), hooks or twists in the roots, were also observed.

[2] = test system: HEK 293 (human epidermal kidney cell line); assay: In vitro cytotoxicity by MTT assay, HEK 293; settings: 72 h
Outline: (§1)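 Cells grown in RPMI-1640 with 10 % […] newborn calf serum were seeded at about 10,000 cells per well and left 24 h to form a partial monolayer. Compounds were then added for 72 h at 37 °C, 5 % CO2, followed by MTT for 4 h, formazan solubilized in propanol and absorbance read at 490 nm.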

[3] = test system: BT474 (breast cancer cell line); assay: In vitro cytotoxicity by MTT assay, BT474; settings: 72 h
Outline: as §1

[4] = test system: NCI-H226 (lung cancer cell line); assay: In vitro cytotoxicity by MTT assay, NCI-H226; settings: 72 h
Outline: as §1

What does the source list for “N-({5-[(3-Nitrobenzylidene)amino]-1,3,4-thiadiazol-2-yl}sulfonyl)benzamide [Compound 9i]”?
Aberrant cells (%) ± SEM [1]: 22.41 ± 6.18%; Chromosome breaks (%) ± SEM [1]: 7.33 ± 2.06%; MNC (‰) ± SEM (micronuclei per 1,000 cells) [1]: 0.61 ± 0.15 ‰; Polar deviations (%) ± SEM [1]: 6.57 ± 1.33%; Stickiness (%) ± SEM [1]: 7.35 ± 2.06%; MI (%) ± SEM (mitotic index) ([1]; lower MI = higher activity, negative control 6.22): 3.07 ± 0.22%; % cytotoxicity (100 − % cell survival) of HEK 293 cell line ([2]; 0.005 μM): 33.04%; % cytotoxicity (100 − % cell survival) of HEK 293 cell line ([2]; 0.015 μM): 34.46%; % cytotoxicity (100 − % cell survival) of HEK 293 cell line ([2]; 0.045 μM): 35.12%; % cytotoxicity (100 − % cell survival) of HEK 293 cell line ([2]; 0.13 μM): 36.32%; % cytotoxicity (100 − % cell survival) of HEK 293 cell line ([2]; 0.41 μM): 36.69%; % cytotoxicity (100 − % cell survival) of HEK 293 cell line ([2]; 1.23 μM): 37.03%; % cytotoxicity (100 − % cell survival) of HEK 293 cell line ([2]; 3.7 μM): 37.19%; % cytotoxicity (100 − % cell survival) of HEK 293 cell line ([2]; 11.11 μM): 38.84%; % cytotoxicity (100 − % cell survival) of HEK 293 cell line ([2]; 33.33 μM): 39.51%; % cytotoxicity (100 − % cell survival) of HEK 293 cell line ([2]; 100 μM): 43.48%; % cytotoxicity (100 − % cell survival) of BT474 cell line ([3]; 0.005 μM): 31.52%; % cytotoxicity (100 − % cell survival) of BT474 cell line ([3]; 0.015 μM): 33.31%; % cytotoxicity (100 − % cell survival) of BT474 cell line ([3]; 0.045 μM): 34.59%; % cytotoxicity (100 − % cell survival) of BT474 cell line ([3]; 0.13 μM): 35.42%; % cytotoxicity (100 − % cell survival) of BT474 cell line ([3]; 0.41 μM): 36.12%; % cytotoxicity (100 − % cell survival) of BT474 cell line ([3]; 1.23 μM): 36.73%; % cytotoxicity (100 − % cell survival) of BT474 cell line ([3]; 3.7 μM): 37.56%; % cytotoxicity (100 − % cell survival) of BT474 cell line ([3]; 11.11 μM): 39.19%; % cytotoxicity (100 − % cell survival) of BT474 cell line ([3]; 33.33 μM): 40.50%; % cytotoxicity (100 − % cell survival) of BT474 cell line ([3]; 100 μM): 41.29%; % Cytotoxicity (100 − % cell survival) of NCI-H226 cell line ([4]; 0.005 μM): 33.61%; % Cytotoxicity (100 − % cell survival) of NCI-H226 cell line ([4]; 0.015 μM): 33.92%; % Cytotoxicity (100 − % cell survival) of NCI-H226 cell line ([4]; 0.045 μM): 33.97%; % Cytotoxicity (100 − % cell survival) of NCI-H226 cell line ([4]; 0.13 μM): 34.14%; % Cytotoxicity (100 − % cell survival) of NCI-H226 cell line ([4]; 0.41 μM): 34.59%; % Cytotoxicity (100 − % cell survival) of NCI-H226 cell line ([4]; 1.23 μM): 34.95%; % Cytotoxicity (100 − % cell survival) of NCI-H226 cell line ([4]; 3.7 μM): 35.27%; % Cytotoxicity (100 − % cell survival) of NCI-H226 cell line ([4]; 11.11 μM): 36.72%; % Cytotoxicity (100 − % cell survival) of NCI-H226 cell line ([4]; 33.33 μM): 38.57%; % Cytotoxicity (100 − % cell survival) of NCI-H226 cell line ([4]; 100 μM): 38.66%
